Experimental data: paper PMC10815578 (International Journal of Molecular Sciences, 2024)
Values joined by “and” are separate entries in the source; they are usually repeats but may differ in a detail not shown here. Equal entries are not always repeated. Where two headings read alike, the source gives them in different places. Values belong to the molecule of their own block, whether it stands above or below them.

Columns and labels:
OATP4C1 = target: T1, OATP4C1 (Homo sapiens, UniProt Q6ZQN7); assay: Inhibition of OATP4C1-mediated T3 uptake in OATP4C1/MDCKII cells; settings: for inhibition at 10 min, 100 µM / inhibition at 10 min, 50 µM: human, pH 7.4, probe T3 (1 µM); for alteration of OATP4C1-mediated transport (in words): 100 µM (theaflavin 50 µM); for inhibition at 10 min, 50 µM: curcumin inhibition of OATP4C1-mediated transport, 50 µM curcumin
T1 sequence (Q6ZQN7 1-724): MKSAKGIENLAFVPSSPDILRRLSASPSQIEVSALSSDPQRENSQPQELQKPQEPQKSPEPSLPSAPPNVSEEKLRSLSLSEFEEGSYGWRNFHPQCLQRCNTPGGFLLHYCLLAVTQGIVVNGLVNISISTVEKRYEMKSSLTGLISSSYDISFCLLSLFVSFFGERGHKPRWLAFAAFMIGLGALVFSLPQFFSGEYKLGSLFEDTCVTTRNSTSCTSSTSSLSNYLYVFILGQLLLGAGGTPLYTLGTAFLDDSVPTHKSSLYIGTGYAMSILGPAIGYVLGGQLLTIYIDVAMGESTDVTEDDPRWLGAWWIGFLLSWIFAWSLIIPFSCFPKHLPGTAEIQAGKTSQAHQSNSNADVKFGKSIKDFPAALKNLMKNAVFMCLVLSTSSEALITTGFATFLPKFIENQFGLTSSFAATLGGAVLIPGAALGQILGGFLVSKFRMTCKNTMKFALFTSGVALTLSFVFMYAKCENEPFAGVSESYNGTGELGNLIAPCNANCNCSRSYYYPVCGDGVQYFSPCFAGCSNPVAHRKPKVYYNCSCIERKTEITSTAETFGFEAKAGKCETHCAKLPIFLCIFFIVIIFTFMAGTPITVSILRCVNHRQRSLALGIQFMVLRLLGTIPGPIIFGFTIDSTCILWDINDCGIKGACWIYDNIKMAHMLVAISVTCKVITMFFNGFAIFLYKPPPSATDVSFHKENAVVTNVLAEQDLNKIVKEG

OAT1 = settings: Supplementary table, cited from earlier work
OAT3 = settings: Supplementary table, cited from earlier work
OATP1B1 = settings: cited from earlier work; for OATP1B1 inhibition degree: ref 1 of the supplement
OATP1B3 = settings: cited from earlier work; for IC50: read-out: OATP1B3 IC50
OATP2B1 = settings: Supplementary table, ref previous reports (superscript numbers), cited from earlier work; for IC50: read-out: OATP2B1 IC50
[1] = OATP4C1 inhibition degree, 100 µM, Supplementary table
[2] = read-out: OATP1B1 IC50, Supplementary table, ref previous reports (superscript numbers)
[3] = Supplementary table, ref previous reports (superscript numbers)
[4] = ref previous reports (superscript numbers)

Structure (SMILES): Oc1cc(O)c2cc(O)c(-c3ccc(O)c(O)c3)[o+]c2c1 [Cyanidin, Cyanidin chloride]
- OATP4C1 inhibition or elevation (class) (OATP4C1; Supplementary table): Yes
- inhibition at 10 min, 100 µM (OATP4C1; [1]): 24%

Structure (SMILES): O=C(O[C@@H]1Cc2c(O)cc(O)cc2O[C@@H]1c1cc(O)c(O)c(O)c1)c1cc(O)c(O)c(O)c1 [EGCG, epigallocatechin-3-gallate]
- Ki (OAT1; ref 27 of the supplement, read-out: OAT1 Ki (asterisk)): 334 ± 58 µM
- Ki (OAT3; ref 27 of the supplement, read-out: OAT3 Ki (asterisk)): 162 ± 29 µM
- IC50 (OATP1B1; [2]): 14.1 µM and 7.8 µM
- OATP1B3 inhibition or elevation (class) (OATP1B3; Supplementary table, ref 25 of the supplement): Elevation
- IC50 (OATP1B3; [3]): 8.4 ± 0.6 µM
- EC50 (OATP1B3; read-out: OATP1B3 elevation EC50, mean ± S.E., ref 25 of the supplement): 10.5 ± 1.6 µM
- IC50 (OATP2B1): 101 ± 9 µM
- alteration of OATP4C1-mediated transport (in words) (OATP4C1; 1 µM T3, 10 min, without AA): did not inhibit
- OATP4C1 inhibition or elevation (class) (OATP4C1; Supplementary table): No

Structure (SMILES): COc1ccc([C@@H]2CC(=O)c3c(O)cc(O[C@@H]4O[C@H](CO[C@@H]5O[C@@H](C)[C@H](O)[C@@H](O)[C@H]5O)[C@@H](O)[C@H](O)[C@H]4O)cc3O2)cc1O [Hesperidin, hesperidin]
- OATP4C1 inhibition or elevation (class) (OATP4C1; Supplementary table): No

Structure (SMILES): O=c1c(O[C@@H]2O[C@H](CO)[C@H](O)[C@H](O)[C@H]2O)c(-c2ccc(O)c(O)c2)oc2cc(O)cc(O)c12 [Hyperoside]
- IC50 (OATP2B1): 29.4 ± 1.5 µM
- OATP4C1 inhibition or elevation (class) (OATP4C1; Supplementary table): No

Structure (SMILES): C[C@@H]1O[C@@H](O[C@H]2[C@H](Oc3cc(O)c4c(c3)O[C@H](c3ccc(O)cc3)CC4=O)O[C@H](CO)[C@@H](O)[C@@H]2O)[C@H](O)[C@H](O)[C@H]1O [Naringin, naringin]
- OATP1B1 inhibition degree (OATP1B1; 250 µM): < 50%
- OATP1B1 inhibition or elevation (class) (OATP1B1; [3]): Yes
- IC50 (OATP1B3; [3]): 197.5 ± 1.1 µM
- OATP4C1 inhibition or elevation (class) (OATP4C1; Supplementary table): No

Structure (SMILES): C[C@@H]1O[C@@H](OC[C@H]2O[C@@H](Oc3c(-c4ccc(O)c(O)c4)oc4cc(O)cc(O)c4c3=O)[C@H](O)[C@@H](O)[C@@H]2O)[C@H](O)[C@H](O)[C@H]1O [Rutin, rutin]
- OATP1B1 elevation degree (OATP1B1; 50 µM, ref 2 of the supplement): 81.1%
- OATP1B1 inhibition degree (OATP1B1; 150 µM): < 50%
- OATP1B1 inhibition or elevation (class) (OATP1B1; [3]): Elevation
- IC50 (OATP1B3; [3]): 111.5 ± 1.1 µM
- IC50 (OATP2B1): 60.7 ± 1.2 µM
- OATP4C1 inhibition or elevation (class) (OATP4C1; Supplementary table): No

The next lines start with results.

- OATP4C1 inhibition or elevation (class) (OATP4C1; Supplementary table): No
Structure (SMILES): O=c1c(O)c(-c2cc(O)c(O)c(O)c2)oc2cc(O)cc(O)c12 [Myricetin, myricetin]

- alteration of OATP4C1-mediated transport (in words) (OATP4C1; 1 µM T3, 10 min, without AA): did not inhibit
- OATP4C1 inhibition or elevation (class) (OATP4C1; Supplementary table): No
Structure (SMILES): O=c1c(O)cc([C@H]2Oc3cc(O)cc(O)c3C[C@H]2O)cc2c([C@H]3Oc4cc(O)cc(O)c4C[C@H]3O)cc(O)c(O)c12 [Theaflavin, theaflavin]
- Ki (OATP2B1; read-out: OATP2B1 Ki (asterisk)): 8.2 ± 1.7 µM

- inhibition of OATP4C1-mediated transport (OATP4C1; 100 µM compound, 1 µM T3, 10 min, 37 °C, without AA): 66%
- OATP4C1 inhibition or elevation (class) (OATP4C1; Supplementary table): Yes
- inhibition at 10 min, 100 µM (OATP4C1; [1]): 54%
- inhibition at 10 min, 100 µM (OATP4C1; inhibition of OATP4C1-mediated transport, 100 µM compound, 1 µM T3, 10 min, 37 °C, without AA): ≥ 50%
Structure (SMILES): O=c1cc(-c2ccc(O)cc2)oc2cc(O)cc(O)c12 [apigenin]
- IC50 (OAT1; [4]): 0.212 ± 0.01 µM
- IC50 (OAT3; [4]): 0.41 ± 0.157 µM
- IC50 (OATP1B1; [2]): 53.4 ± 2.1 µM
- Ki (OATP1B1; read-out: OATP1B1 Ki (asterisk), Supplementary table, ref previous reports (superscript numbers)): 0.6 ± 0.2 µM
- Ki (OATP1B3; read-out: OATP1B3 Ki (asterisk), Supplementary table, ref previous reports (superscript numbers)): 16.7 ± 1.6 µM

- alteration of OATP4C1-mediated transport (in words) (OATP4C1; 1 µM T3, 10 min, without AA): did not inhibit
- OATP4C1 inhibition or elevation (class) (OATP4C1; Supplementary table): No
Structure (SMILES): O=C(O)/C=C/c1ccc(O)c(O)c1 [caffeic acid, Caffeic acid]

- inhibition at 10 min, 50 µM (OATP4C1; absence of AA, 1 µM T3, 10 min): 33%
- inhibition at 10 min, 50 µM (OATP4C1; presence of 10, 100 and 1000 µM AA, 1 µM T3, 10 min): 63 to 67%
Structure (SMILES): COc1cc(/C=C/C(=O)CC(=O)/C=C/c2ccc(O)c(OC)c2)ccc1O [curcumin]
- IC50 (OATP1B1; read-out: IC50 OATP1B1 transport, no antioxidant used): 3.8 µM
- IC50 (OATP1B1; [2]): 3.81 µM
